Eight compounds from paper PMC11144275 (The Lancet. Infectious diseases, 2019) can be followed below.

pEC50: −log10 of the molar value. Structures can show the parent of a compound that is named as a salt.

One data set has as its system EBOV-Makona. The data set is described as follows: microbe, parasite or virus in culture. It counts as cell-based, Ebola virus.
The subject of another data set is EBOV-Ituri. The experiment in a line: microbe, parasite or virus in culture. Type of data set: cell-based, Ebola virus.

On to `Nc1ccn([C@@H]2O[C@H](CO)[C@@H](O)[C@H]2F)c(=O)n1` [2′-deoxy-2′-fluorocytidine], for which the “EBOV-Makona Selectivity index” value in the data set on EBOV-Makona is given as greater than 16. Besides, in the data set on EBOV-Ituri, the “EBOV-Ituri Selectivity index” value is greater than 14.
With `NCC(=O)Nc1ccc(-n2nc(C(F)(F)F)cc2-c2ccc3c(ccc4ccccc43)c2)cc1` [AR-12], the CC50 with Huh-7 cells is 3·67 (0·14) μM.
Regarding `CCN(CC)CCOc1ccc(C(=C(Cl)c2ccccc2)c2ccccc2)cc1` [Clomifene citrate], the CC50 in the data set with Huh-7 cells is 8·43 (1·08) μM.
With `COc1c(C)c2c(c(O)c1C/C=C(\C)CCC(=O)OCCN1CCOCC1)C(=O)OC2` [Mycophenolate mofetil], in the data set with EBOV-Makona, the “EBOV-Makona Selectivity index” value came out at 97. In the data set with EBOV-Ituri, the “EBOV-Ituri Selectivity index” value came out at 89. In addition, the CC50 in the data set on Huh-7 cells is listed as 14·2 (4·3) μM.
A word on the pEC50: it is −log10 of the EC50, conventionally taken in molar units. As to `CCC(CC)COC(=O)[C@H](C)N[P@](=O)(OC[C@H]1O[C@@](C#N)(c2ccc3c(N)ncnn23)[C@H](O)[C@@H]1O)Oc1ccccc1` [Remdesivir], the pEC50 was 7.92 in the data set on EBOV-Makona (Zaire ebolavirus, Huh-7, read-out: EC50 EBOV-Makona) and 7.89 with EBOV-Ituri (Zaire ebolavirus, Huh-7, read-out: EC50 EBOV-Ituri). Further, the CC50 in the data set with Huh-7 cells was 3·63 (2·88) μM.
For `NC(=O)c1ncn([C@@H]2O[C@H](CO)[C@@H](O)[C@H]2O)n1` [Ribavirin], in the data set on EBOV-Makona, the “EBOV-Makona Selectivity index” value is reported as greater than 4. Besides, the “EBOV-Ituri Selectivity index” value in the data set with EBOV-Ituri is given as greater than 3.
Turning to `CC/C(=C(\c1ccccc1)c1ccc(OCCN(C)C)cc1)c1ccccc1` [Tamoxifen], the CC50 in the data set with Huh-7 cells was 16·29 (12·05) μM.
For the compound `CN(C)CCOc1ccc(/C(=C(/CCCl)c2ccccc2)c2ccccc2)cc1` [Toremifene citrate], the “EBOV-Makona Selectivity index” value in the data set with EBOV-Makona is listed as greater than 250. In the data set with EBOV-Ituri, the “EBOV-Ituri Selectivity index” value is greater than 625.
